Measured values: BindingDB's records for doi:10.1016/j.bmcl.2005.01.051 (Merck Research Laboratories, 2005)

Experiment: Inhibition of alphaIIb-beta3 integrin mediated platelet aggregation (PLAGGIN15)

IC50 [µM]	Compound
> 10	COc1ccc([C@@H](CCC[C@@H](O)CCc2ccc3c(n2)NCCC3)CC(=O)O)cn1 [(3S,7R)-7-Hydroxy-3-(6-methoxy-pyridin-3-yl)-9-(5,6,7,8-tetrahydro-[1,8]naphthyridin-2-yl)-nonanoic acid]
> 10	COc1ccc([C@@H](CCCC(=O)CCc2ccc3c(n2)NCCC3)CC(=O)O)cn1 [(S)-3-(6-Methoxy-pyridin-3-yl)-7-oxo-9-(5,6,7,8-tetrahydro-[1,8]naphthyridin-2-yl)-nonanoic acid]
> 10	COc1ccc([C@@H](CCC[C@H](O)CCc2ccc3c(n2)NCCC3)CC(=O)O)cn1 [(3S,7S)-7-Hydroxy-3-(6-methoxy-pyridin-3-yl)-9-(5,6,7,8-tetrahydro-[1,8]naphthyridin-2-yl)-nonanoic acid]
